Patent US7709507B2 (Allergan, Inc., priority 2006, dated 2010)

How the values were obtained:
Format in all cases: cell-based
alpha2C receptor = biological target: T1, alpha2C receptor (Homo sapiens, UniProt P18825); experiment: Receptor Selection and Amplification Technology (RSAT) assay, Alpha 2C; conditions: RSAT, transfected NIH-3T3 cells with Gq/i5; not active = at concentrations less than 10 micromolar
T1 construct: expressed in transfected cells; host or cells: NIH-3T3 cells
T1 sequence (P18825 1-462): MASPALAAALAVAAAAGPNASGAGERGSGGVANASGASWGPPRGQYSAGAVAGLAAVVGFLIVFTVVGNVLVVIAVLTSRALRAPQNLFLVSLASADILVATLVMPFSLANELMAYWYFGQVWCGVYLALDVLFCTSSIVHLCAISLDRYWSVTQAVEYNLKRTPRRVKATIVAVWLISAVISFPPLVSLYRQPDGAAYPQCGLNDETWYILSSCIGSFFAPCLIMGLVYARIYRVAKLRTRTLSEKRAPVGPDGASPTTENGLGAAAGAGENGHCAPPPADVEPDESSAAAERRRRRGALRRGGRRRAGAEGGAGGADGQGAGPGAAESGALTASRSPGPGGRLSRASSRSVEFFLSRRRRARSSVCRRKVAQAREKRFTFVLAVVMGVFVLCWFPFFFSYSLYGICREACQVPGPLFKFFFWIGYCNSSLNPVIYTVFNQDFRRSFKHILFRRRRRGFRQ
Experimental: (§1) Receptor Selection and Amplification Technology (RSAT) Assay
(§2) The RSAT assay measures a receptor-mediated loss of contact inhibition that results in selective proliferation of receptor-containing cells in a mixed population of confluent cells. The increase in cell number is assessed with an appropriate transfected marker gene such as β-galactosidase, the activity of which can be easily measured in a 96-well format. Receptors that activate the G protein, Gq, elicit this response. Alpha2 receptors, which normally couple to Gi, activate the RSAT response when coexpressed with a hybrid Gq protein that has a Gi receptor recognition domain, called Gq/i5.
(§3) NIH-3T3 cells are plated at a density of 2×10^6 cells in 15 cm dishes and maintained in Dulbecco's modified Eagle's medium supplemented with 10% calf serum. One day later, cells are cotransfected by calcium phosphate precipitation with mammalian expression plasmids encoding p-SV-β-galactosidase (5-10 μg), receptor (1-2 μg) and G protein (1-2 μg). 40 μg salmon sperm DNA may also be included in the transfection mixture. […] Cells are thawed and 100 μl added to 100 μl aliquots of various concentrations of drugs in triplicate in 96-well dishes. Incubations continue 72-96 hr at 37° C. After washing with phosphate-buffered saline, β-galactosidase enzyme activity is determined by adding 200 μl of the chromogenic substrate (consisting of 3.5 mM o-nitrophenyl-β-D-galactopyranoside and 0.5% nonidet P-40 in phosphate buffered saline), incubating overnight at 30° C. and measuring optical density at 420 nm. The absorbance is a measure of enzyme activity, which depends on cell number and reflects a receptor-mediated cell proliferation. The efficacy or intrinsic activity is calculated as a ratio of the maximal effect of the drug to the maximal effect of a standard full agonist for each receptor subtype. Brimonidine, also called UK14304, the chemical structure of which is shown below, is used as the standard agonist for the alpha2A, alpha2B and alpha2C receptors. The EC50 is the concentration at which the drug effect is half of its maximal effect.
(§4) EC50 values are nanomolar. NA stands for “not active” at concentrations less than 10 micromolar. IA stands for “intrinsic activity.”

alpha2B receptor = biological target: T2, alpha2B receptor (Homo sapiens, UniProt P18089); experiment: Receptor Selection and Amplification Technology (RSAT) assay, Alpha 2B; conditions: for EC50: RSAT, transfected NIH-3T3 cells with Gq/i5, not active = at concentrations less than 10 micromolar, read-out: Alpha 2B EC50; for Alpha 2B IA (intrinsic activity): ratio of maximal effect to that of standard full agonist brimonidine (UK14304)
T2 construct: expressed in transfected cells; host or cells: NIH-3T3 cells
T2 sequence (P18089 1-450): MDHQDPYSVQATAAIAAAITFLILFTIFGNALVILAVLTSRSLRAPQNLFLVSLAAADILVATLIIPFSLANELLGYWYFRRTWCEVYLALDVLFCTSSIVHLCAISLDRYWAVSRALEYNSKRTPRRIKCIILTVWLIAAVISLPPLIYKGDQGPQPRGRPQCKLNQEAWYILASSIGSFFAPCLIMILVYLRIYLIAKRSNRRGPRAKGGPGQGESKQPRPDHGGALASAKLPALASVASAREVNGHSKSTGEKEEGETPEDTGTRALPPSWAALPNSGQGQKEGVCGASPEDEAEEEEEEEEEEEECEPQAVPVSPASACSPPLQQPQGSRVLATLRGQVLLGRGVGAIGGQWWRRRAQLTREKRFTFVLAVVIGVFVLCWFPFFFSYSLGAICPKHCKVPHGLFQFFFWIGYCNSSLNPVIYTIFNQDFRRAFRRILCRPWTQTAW
Experimental: as §1, §2
NIH-3T3 cells are plated at a density of 2×10^6 cells in 15 cm dishes and maintained in Dulbecco's modified Eagle's medium supplemented with 10% calf serum. One day later, cells are cotransfected by calcium phosphate precipitation with mammalian expression plasmids encoding p-SV-β-galactosidase (5-10 μg), receptor (1-2 μg) and G protein (1-2 μg). 40 μg salmon sperm DNA may also be included in the transfection mixture. Fresh media is added on the following day and 1-2 days later, cells are harvested and frozen in 50 assay aliquots. Cells are thawed and 100 μl added to 100 μl aliquots of various concentrations of drugs in triplicate in 96-well dishes. Incubations continue 72-96 hr at 37° C. After washing with phosphate-buffered saline, β-galactosidase enzyme activity is determined by adding 200 μl of the chromogenic substrate (consisting of 3.5 mM o-nitrophenyl-β-D-galactopyranoside and 0.5% nonidet P-40 in phosphate buffered saline), incubating overnight at 30° C. and measuring optical density at 420 nm. The absorbance is a measure of enzyme activity, which depends on cell number and reflects a receptor-mediated cell proliferation. The efficacy or intrinsic activity is calculated as a ratio of the maximal effect of the drug to the maximal effect of a standard full agonist for each receptor subtype. Brimonidine, also called UK14304, the chemical structure of which is shown below, is used as the standard agonist for the alpha2A, alpha2B and alpha2C receptors. The EC50 is the concentration at which the drug effect is half of its maximal effect.
The results of the RSAT assay with several exemplary compounds of the invention are disclosed in Table 1 above together with the chemical formulas of these exemplary compounds. EC50 values are nanomolar. NA stands for “not active” at concentrations less than 10 micromolar. IA stands for “intrinsic activity.”

alpha2A receptor = biological target: T3, alpha2A receptor (Homo sapiens, UniProt P08913); experiment: Receptor Selection and Amplification Technology (RSAT) assay, Alpha 2A
T3 construct: expressed in transfected cells; host or cells: NIH-3T3 cells
T3 sequence (P08913 1-465): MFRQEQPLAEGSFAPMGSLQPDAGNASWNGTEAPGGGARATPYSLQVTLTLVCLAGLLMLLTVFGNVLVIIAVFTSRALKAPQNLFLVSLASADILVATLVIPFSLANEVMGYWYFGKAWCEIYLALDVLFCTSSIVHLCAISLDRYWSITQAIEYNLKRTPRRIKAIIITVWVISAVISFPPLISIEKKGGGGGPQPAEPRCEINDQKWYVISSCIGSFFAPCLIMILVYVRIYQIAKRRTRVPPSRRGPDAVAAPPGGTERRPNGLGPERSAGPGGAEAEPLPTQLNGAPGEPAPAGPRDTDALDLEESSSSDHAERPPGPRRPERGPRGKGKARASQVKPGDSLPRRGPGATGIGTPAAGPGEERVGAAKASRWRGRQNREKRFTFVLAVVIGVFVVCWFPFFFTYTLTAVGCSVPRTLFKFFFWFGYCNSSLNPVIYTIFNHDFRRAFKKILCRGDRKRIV
Experimental: as §1, §2, §3, §4

[1] = RSAT, transfected NIH-3T3 cells with Gq/i5, not active = at concentrations less than 10 micromolar

| Structure (SMILES) | Alpha 2C EC50 (alpha2C receptor) | EC50 (alpha2B receptor) | Alpha 2B IA (intrinsic activity) (alpha2B receptor) | EC50 (alpha2A receptor; RSAT, transfected NIH-3T3 cells with Gq/i5, not active = at concentrations less than 10 micromolar, read-out: Alpha 2A EC50) | Alpha 2A IA (intrinsic activity) (alpha2A receptor; ratio of maximal effect to that of standard full agonist brimonidine (UK14304)) | Alpha 2A EC50 (alpha2A receptor; [1]) |
| --- | --- | --- | --- | --- | --- | --- |
| O=C(NCCF)NC(Cc1ccncc1)c1cccc(Cl)c1 (stereo not drawn) [1-[1-(3-chloro-phenyl)-2-pyridin-4-yl-ethyl]-3-(2-fluoro-ethyl)-urea] | not active | 30.7 nM | 1.32 | 368 nM | 0.57 |  |
| O=C(NCCF)NC(Cc1ccccc1)C1CCCC1 (stereo not drawn) [1-(1-cyclopentyl-2-phenylethyl)-3-(2-fluoroethyl)urea] | not active | 378 nM | 0.6 |  |  | not active |

Other lines, results leading:

| Alpha 2C EC50 (alpha2C receptor) | EC50 (alpha2B receptor) | Alpha 2B IA (intrinsic activity) (alpha2B receptor) | EC50 (alpha2A receptor; RSAT, transfected NIH-3T3 cells with Gq/i5, not active = at concentrations less than 10 micromolar, read-out: Alpha 2A EC50) | Alpha 2A IA (intrinsic activity) (alpha2A receptor; ratio of maximal effect to that of standard full agonist brimonidine (UK14304)) | Alpha 2A EC50 (alpha2A receptor; [1]) | Structure (SMILES) |
| --- | --- | --- | --- | --- | --- | --- |
| not active | 12.9 nM | 0.96 |  |  | not active | O=C(NCCF)NC(Cc1ccccc1F)c1ccccc1 (stereo not drawn) [1-(2-fluoroethyl)-3-[2-(2-fluorophenyl)-1-phenylethyl]urea] |
| not active | 138 nM | 1.0 |  |  | not active | O=C(NCCF)NC(Cc1ccccc1)c1cccc(Cl)c1F (stereo not drawn) [1-[1-(3-chloro-2-fluorophenyl)-2-phenylethyl]-3-(2-fluoroethyl)urea] |
| not active | 177 nM | 0.55 |  |  | not active | O=C(NCCF)NC(Cc1ccccc1)c1ccc(Cl)cc1 (stereo not drawn) |
